Numbers after ± are expanded uncertainties.
How the values were obtained:
[1] = 101 kPa, Liquid
[2] = xn = mol fraction of the nth substance listed; settings: 101 kPa, Liquid

CCOCCO [2-ethoxyethan-1-ol]
[1]
Settings | viscosity [mPa·s]
293.15 K | 2.142 ± 0.027
298.15 K | 1.848 ± 0.023
303.15 K | 1.646 ± 0.021

CCOC(C)(C)C [2-ethoxy-2-methylpropane] + CCOCCOCCO
[2], x1 = 1
Settings | viscosity [mPa·s]
293.15 K | 0.532 ± 0.007
298.15 K | 0.504 ± 0.007
303.15 K | 0.478 ± 0.007

CCOCCOCCOCCO [2-(2-(2-ethoxyethoxy)ethoxy)ethanol]
[1]
Settings | viscosity [mPa·s]
293.15 K | 8.087 ± 0.14
298.15 K | 7.049 ± 0.13
303.15 K | 6.421 ± 0.12

CCOC(C)(C)C [2-ethoxy-2-methylpropane] + CCOCCOCCOCCO
[2], x1 = 1
Settings | viscosity [mPa·s]
293.15 K | 0.532 ± 0.007
298.15 K | 0.504 ± 0.007
303.15 K | 0.478 ± 0.007

CCOC(C)(C)C [2-ethoxy-2-methylpropane]
[1]
Settings | viscosity [mPa·s]
293.15 K | 0.532 ± 0.007
298.15 K | 0.504 ± 0.007
303.15 K | 0.478 ± 0.007

CCOCCOCCO [3,6-dioxa-1-octanol] + CCOC(C)(C)C
viscosity [mPa·s], [2]
Settings | 293.15 K | 298.15 K | 303.15 K
x2 = 0 | 4.464 ± 0.066 | 3.976 ± 0.059 | 3.531 ± 0.053
x2 = 0.05 | 3.992 ± 0.058 | 3.574 ± 0.052 | 3.192 ± 0.047
x2 = 0.1 | 3.505 ± 0.05 | 3.156 ± 0.045 | 2.836 ± 0.041
x2 = 0.1501 | 3.037 ± 0.043 | 2.746 ± 0.039 | 2.49 ± 0.035
x2 = 0.2 | 2.637 ± 0.037 | 2.398 ± 0.033 | 2.183 ± 0.031
x2 = 0.2498 | 2.289 ± 0.031 | 2.093 ± 0.029 | 1.912 ± 0.026
x2 = 0.2999 | 1.991 ± 0.027 | 1.828 ± 0.025 | 1.683 ± 0.023
x2 = 0.3497 | 1.744 ± 0.023 | 1.605 ± 0.022 | 1.48 ± 0.02
x2 = 0.3999 | 1.526 ± 0.02 | 1.413 ± 0.019 | 1.312 ± 0.018
x2 = 0.4502 | 1.343 ± 0.018 | 1.245 ± 0.017 | 1.16 ± 0.016
x2 = 0.5002 | 1.184 ± 0.016 | 1.103 ± 0.015 | 1.03 ± 0.014
x2 = 0.55 | 1.049 ± 0.014 | 0.979 ± 0.013 | 0.918 ± 0.012
x2 = 0.5997 | 0.932 ± 0.012 | 0.872 ± 0.012 | 0.82 ± 0.011
x2 = 0.6504 | 0.832 ± 0.011 | 0.78 ± 0.01 | 0.736 ± 0.01
x2 = 0.7003 | 0.749 ± 0.01 | 0.704 ± 0.009 | 0.667 ± 0.009
x2 = 0.7503 | 0.682 ± 0.009 | 0.643 ± 0.009 | 0.611 ± 0.008
x2 = 0.7998 | 0.63 ± 0.009 | 0.596 ± 0.008 | 0.568 ± 0.008
x2 = 0.8498 | 0.591 ± 0.008 | 0.562 ± 0.008 | 0.536 ± 0.007
x2 = 0.9 | 0.563 ± 0.008 | 0.536 ± 0.007 | 0.512 ± 0.007
x2 = 0.95 | 0.545 ± 0.007 | 0.519 ± 0.007 | 0.495 ± 0.007

CCOC(C)(C)C [2-ethoxy-2-methylpropane] + CCOCCO
viscosity [mPa·s], [2]
Settings | 293.15 K | 298.15 K | 303.15 K
x1 = 0.05 | 1.943 ± 0.024 | 1.691 ± 0.021 | 1.515 ± 0.019
x1 = 0.1001 | 1.766 ± 0.022 | 1.547 ± 0.02 | 1.394 ± 0.018
x1 = 0.1489 | 1.619 ± 0.02 | 1.424 ± 0.018 | 1.286 ± 0.016
x1 = 0.2002 | 1.476 ± 0.018 | 1.306 ± 0.017 | 1.184 ± 0.015
x1 = 0.2511 | 1.35 ± 0.017 | 1.203 ± 0.015 | 1.094 ± 0.014
x1 = 0.2999 | 1.242 ± 0.016 | 1.113 ± 0.014 | 1.017 ± 0.013
x1 = 0.3486 | 1.146 ± 0.014 | 1.031 ± 0.013 | 0.947 ± 0.012
x1 = 0.4 | 1.057 ± 0.013 | 0.955 ± 0.012 | 0.879 ± 0.011
x1 = 0.4511 | 0.977 ± 0.012 | 0.887 ± 0.011 | 0.82 ± 0.011
x1 = 0.5 | 0.908 ± 0.012 | 0.829 ± 0.011 | 0.769 ± 0.01
x1 = 0.5502 | 0.845 ± 0.011 | 0.775 ± 0.01 | 0.721 ± 0.01
x1 = 0.5999 | 0.791 ± 0.01 | 0.729 ± 0.01 | 0.679 ± 0.009
x1 = 0.652 | 0.74 ± 0.01 | 0.685 ± 0.009 | 0.64 ± 0.009
x1 = 0.6999 | 0.699 ± 0.009 | 0.649 ± 0.009 | 0.608 ± 0.008
x1 = 0.7499 | 0.66 ± 0.009 | 0.616 ± 0.008 | 0.578 ± 0.008
x1 = 0.8 | 0.626 ± 0.008 | 0.586 ± 0.008 | 0.552 ± 0.008
x1 = 0.8505 | 0.597 ± 0.008 | 0.56 ± 0.008 | 0.528 ± 0.007
x1 = 0.9 | 0.571 ± 0.008 | 0.538 ± 0.007 | 0.508 ± 0.007
x1 = 0.9499 | 0.549 ± 0.008 | 0.519 ± 0.007 | 0.492 ± 0.007
x1 = 1 | 0.532 ± 0.007 | 0.504 ± 0.007 | 0.478 ± 0.007

CCOCCOCCOCCO [2-(2-(2-ethoxyethoxy)ethoxy)ethanol] + CCOC(C)(C)C
viscosity [mPa·s], [2]
Settings | 293.15 K | 298.15 K | 303.15 K
x2 = 0 | 8.087 ± 0.14 | 7.049 ± 0.13 | 6.421 ± 0.12
x2 = 0.0501 | 6.804 ± 0.12 | 5.991 ± 0.11 | 5.485 ± 0.098
x2 = 0.0996 | 5.742 ± 0.098 | 5.091 ± 0.088 | 4.685 ± 0.082
x2 = 0.1502 | 4.816 ± 0.081 | 4.304 ± 0.073 | 3.982 ± 0.067
x2 = 0.1999 | 4.042 ± 0.066 | 3.643 ± 0.06 | 3.389 ± 0.056
x2 = 0.2502 | 3.391 ± 0.054 | 3.076 ± 0.049 | 2.874 ± 0.046
x2 = 0.3005 | 2.841 ± 0.044 | 2.597 ± 0.04 | 2.437 ± 0.038
x2 = 0.3506 | 2.383 ± 0.036 | 2.195 ± 0.033 | 2.067 ± 0.031
x2 = 0.4 | 2.008 ± 0.03 | 1.863 ± 0.028 | 1.759 ± 0.026
x2 = 0.4502 | 1.692 ± 0.024 | 1.582 ± 0.023 | 1.495 ± 0.022
x2 = 0.5 | 1.435 ± 0.02 | 1.351 ± 0.019 | 1.278 ± 0.018
x2 = 0.55 | 1.225 ± 0.017 | 1.16 ± 0.016 | 1.096 ± 0.015
x2 = 0.5955 | 1.067 ± 0.015 | 1.013 ± 0.014 | 0.959 ± 0.013
x2 = 0.6498 | 0.915 ± 0.013 | 0.873 ± 0.012 | 0.824 ± 0.011
x2 = 0.7 | 0.804 ± 0.011 | 0.77 ± 0.011 | 0.727 ± 0.01
x2 = 0.7502 | 0.714 ± 0.01 | 0.689 ± 0.009 | 0.654 ± 0.009
x2 = 0.7982 | 0.647 ± 0.009 | 0.628 ± 0.009 | 0.598 ± 0.008
x2 = 0.8491 | 0.593 ± 0.008 | 0.581 ± 0.008 | 0.555 ± 0.008
x2 = 0.9 | 0.555 ± 0.008 | 0.549 ± 0.008 | 0.524 ± 0.007
x2 = 0.95 | 0.533 ± 0.007 | 0.528 ± 0.007 | 0.502 ± 0.007

CCOCCOCCO [3,6-dioxa-1-octanol]
[1]
Settings | viscosity [mPa·s]
293.15 K | 4.464 ± 0.066
298.15 K | 3.976 ± 0.059
303.15 K | 3.531 ± 0.053

CCOCCO [2-ethoxyethan-1-ol] + CCOC(C)(C)C
[2], x2 = 0
Settings | viscosity [mPa·s]
293.15 K | 2.142 ± 0.027
298.15 K | 1.848 ± 0.023
303.15 K | 1.646 ± 0.021
